{"source": "patent US11065274B2", "about": "“Prevention and treatment for microbial infections” (University of Rochester, priority 2015, dated 2021)", "key": {"[1]": {"system": "24 hour established A. baumannii biofilms"}, "[2]": {"system": "Enterococcus faecium 824-05"}, "[3]": {"system": "Acinetobacter baumannii 983709"}, "S. aureus [4]": {"system": "S. aureus", "excerpt": "(§1) Dose response measures of the antimicrobial activity of various concentrations (0 to 8% active agent) were used to define the optimal concentration of each agent alone and in combination."}, "[5]": {"system": "Pseudomonas aeruginosa PA01"}, "P. aeruginosa [6]": {"system": "P. aeruginosa", "conditions": "P. aeruginosa wound; 2% agent in PEG (combination 1%+1%), twice a day for three days", "description": "(§2) Treatments were twice a day for a total of three days, at which point the wound bacterial burden was measured."}, "[7]": {"system": "Enterococcus faecalis V583"}, "[8]": {"system": "Staphylococcus aureus UAMS-1"}, "[9]": {"system": "Enterobacter cloacae Clinical Isolate"}, "[10]": {"system": "Klebsiella pneumoniae CKP4"}, "S. aureus [11]": {"system": "S. aureus", "conditions": "2% agent (combination 1% silver sulfadiazine and 1% zinc pyrithione), 3 day", "description": "as §2"}, "P. aeruginosa [12]": {"system": "P. aeruginosa", "excerpt": "as §1"}, "[13]": {"system": "48 hour established Pseudomonas aeruginosa biofilms"}, "[14]": {"conditions": "0 to 8% active agent (ZnPt ˜0.015 to 0.25%; combination 0.015% to 4%)"}}}
{"substance": "zinc pyrithione [ZnPt]", "values": [{"measurement": "antibiofilm activity toward A. baumannii biofilms", "setting": "[1]; comparison of agents alone and in combination", "result": "improved activity"}, {"measurement": "reduction in biofilm associated A. baumannii", "setting": "[1]; highest concentration tested (128 μg ml^−1; combination 64 μg ml^−1 of each agent)", "result": 3.5, "unit": "log"}, {"measurement": "minimum inhibitory concentration", "setting": "[2]; Enterococcus faecium", "result": 2, "unit": "µg/mL"}, {"measurement": "MIC", "setting": "[2]; Enterococcus faecium 824-05", "result": 2, "unit": "µg/mL"}, {"measurement": "minimum inhibitory concentration", "setting": "[3]; Acinetobacter baumannii", "result": 2, "unit": "µg/mL"}, {"measurement": "MIC", "setting": "[3]; Acinetobacter baumannii 983709", "result": 2, "unit": "µg/mL"}, {"measurement": "minimum inhibitory concentration", "setting": "Escherichia coli 8307; Escherichia coli", "result": 1, "unit": "µg/mL"}, {"measurement": "MIC", "setting": "Escherichia coli 8307; Escherichia coli 8307", "result": 1, "unit": "µg/mL"}, {"measurement": "antimicrobial activity in PEG-formulation", "setting": "S. aureus [4]", "result": "exhibited antimicrobial activity"}, {"measurement": "dose response of antimicrobial activity in PEG ointment", "setting": "S. aureus [4]; [14]", "result": "dose-dependent increase in antimicrobial activity"}, {"measurement": "MIC", "setting": "[5]; Pseudomonas aeruginosa PA01", "result": 16, "unit": "µg/mL"}, {"measurement": "minimum inhibitory concentration", "setting": "[5]; planktonic P. aeruginosa", "result": 16, "unit": "µg/mL"}, {"measurement": "decrease in bacterial burden", "setting": "P. aeruginosa [6]", "result": 1.2, "unit": "log"}, {"measurement": "MIC", "setting": "[7]", "result": 2, "unit": "µg/mL"}, {"measurement": "minimum inhibitory concentration", "setting": "[8]; Staphylococcus aureus", "result": 2, "unit": "µg/mL"}, {"measurement": "MIC", "setting": "[8]; Staphylococcus aureus UAMS-1", "result": 2, "unit": "µg/mL"}, {"measurement": "minimum inhibitory concentration", "setting": "[9]; Enterbacter cloacae", "result": 4, "unit": "µg/mL"}, {"measurement": "MIC", "setting": "[9]; Enterobacter cloacae Clinical Isolate", "result": 4, "unit": "µg/mL"}, {"measurement": "minimum inhibitory concentration", "setting": "[10]; Klebsiella pneumoniae", "result": 2, "unit": "µg/mL"}, {"measurement": "MIC", "setting": "[10]; Klebsiella pneumoniae CKP4", "result": 2, "unit": "µg/mL"}, {"measurement": "animals completed cleared of S. aureus", "setting": "S. aureus [11]", "result": "6 of 10"}, {"measurement": "dose response of antimicrobial activity in PEG ointment", "setting": "P. aeruginosa [12]; P. aeruginosa, 0 to 8% active agent (ZnPt ˜0.015 to 0.25%; combination 0.015% to 4%)", "result": "dose-dependent increase in antimicrobial activity"}, {"measurement": "antimicrobial activity in PEG-formulation", "setting": "P. aeruginosa [12]; Pseudomonas aeruginosa", "result": "exhibited antimicrobial activity"}, {"measurement": "reduction in biofilm associated Pseudomonas aeruginosa", "setting": "[13]; 50 μM (15.8 μg ml^−1), 48 hour biofilm", "result": 1, "unit": "log"}, {"measurement": "antibiofilm activity toward P. aeruginosa", "setting": "[13]; low concentrations (4 to 64 μg ml^−1)", "result": "comparable to that of silver sulfadiazine"}, {"measurement": "dose response of antimicrobial activity in PEG ointment", "setting": "A. baumannii; [14]", "result": "dose-dependent increase in antimicrobial activity"}, {"measurement": "antimicrobial activity in PEG-formulation", "setting": "A. baumannii; 1% agent or 1% combination (0.5% each)", "result": "exhibited antimicrobial activity"}]}
